Common to all, as to assay: ≥ marks a high value that may be exact or a test limit, other limits are often not marked, values filed in µg/mL are converted to µM
Experiment [1] deals with Candida albicans ATCC 2002.
Experiment [2] deals with Escherichia coli ATCC 25922.
Experiment [3] deals with Pseudomonas aeruginosa CMCCB 10104.
Experiment [4] has as its system Staphylococcus aureus ATCC 25923.
Another experiment deals with Escherichia coli JW0013.
The subject of the next experiment is Escherichia coli UB1005.
In experiment [5] the test system is Pseudomonas aeruginosa PAO1.

Converted amounts (≈) assume the structure as drawn.

`CC[C@H](C)[C@H](NC(=O)CN)C(=O)N[C@@H](CC(C)C)C(=O)NCC(=O)N[C@@H](CC(N)=O)C(=O)N[C@H](C(=O)N[C@H](C(=O)NCC(=O)N[C@@H](CCSC)C(=O)NCC(=O)N[C@@H](CCCCN)C(=O)N[C@@H](CCC(N)=O)C(=O)N[C@H](C(=O)N[C@H](C(=O)N[C@H]1CSSC[C@@H](C(=O)O)NC(=O)[C@H](CC(C)C)NC(=O)CNC(=O)[C@H](CO)NC(=O)[C@H](CC(C)C)NC(=O)CNC1=O)C(C)C)C(C)C)C(C)C)[C@@H](C)CC` [GILGNIVGMGKQVVCGLSGLC]: the MIC worked out at 2.53 µM (≈ 5.1 µg/mL) in experiment [1], 2.53 µM (≈ 5.1 µg/mL) in experiment [2], 5.05 µM (≈ 10.2 µg/mL) in experiment [3] and 2.53 µM (≈ 5.1 µg/mL) in experiment [4].

Regarding `CC[C@H](C)[C@H](NC(=O)CNC(=O)[C@H](CO)NC(=O)[C@H](CC(C)C)NC(=O)[C@@H](NC(=O)CN)[C@@H](C)CC)C(=O)N[C@@H](CC(C)C)C(=O)NCC(=O)N[C@H](C(=O)NCC(=O)N[C@@H](CCCCN)C(=O)N[C@@H](CCCCN)C(=O)N[C@@H](CC(C)C)C(=O)N[C@H](C(=O)N[C@H]1CSSC[C@@H](C(=O)O)NC(=O)[C@H](CC(C)C)NC(=O)CNC(=O)[C@H](CO)NC(=O)[C@H](CC(C)C)NC(=O)CNC1=O)C(C)C)C(C)C` [GILSGILGVGKKLVCGLSGLC], the MIC in experiment [1] came to 5.79 µM (≈ 11.5 µg/mL); in experiment [2], 5.79 µM (≈ 11.5 µg/mL); in experiment [3], 11.6 µM (≈ 23 µg/mL); in experiment [4], 2.92 µM (≈ 5.79 µg/mL).

Consider `CC[C@H](C)[C@H](NC(=O)CNC(=O)[C@H](CCCCN)NC(=O)CNC(=O)[C@H](C)NC(=O)[C@H](Cc1ccccc1)NC(=O)[C@H](CCCCN)NC(=O)[C@H](CO)NC(=O)[C@H](Cc1ccccc1)NC(=O)[C@H](CC(C)C)NC(=O)CN)C(=O)N[C@@H](CCCCN)C(=O)N[C@@H](CC(N)=O)C(=O)N[C@@H](Cc1ccccc1)C(=O)N[C@@H](CC(C)C)C(=O)N[C@H](C(=O)N[C@@H](CCCCN)C(=O)NCC(=O)N[C@H](C(=O)N[C@@H](CCCCN)C(=O)N[C@@H](Cc1cnc[nH]1)C(=O)N[C@H](C(=O)NCC(=O)N[C@@H](CCCCN)C(=O)N[C@@H](CCC(=O)O)C(=O)N[C@H](C(=O)NCC(=O)N[C@@H](CCSC)C(=O)N[C@@H](CC(=O)O)C(=O)N[C@H](C(=O)N[C@H](C(=O)N[C@@H](CCCN=C(N)N)C(=O)N[C@H](C(=O)NCC(=O)N[C@H](C(=O)N[C@@H](CC(=O)O)C(=O)N[C@H](C(=O)N[C@@H](C)C(=O)NCC(=O)N[C@H]1CSSC[C@@H](C(=O)O)NC(=O)[C@H](CCC(=O)O)NC(=O)CNC(=O)[C@H](CCCCN)NC(=O)[C@H]([C@@H](C)CC)NC(=O)[C@H](CCCCN)NC1=O)C(C)C)[C@@H](C)CC)[C@@H](C)O)[C@@H](C)CC)C(C)C)C(C)C)[C@@H](C)CC)C(C)C)[C@@H](C)CC` [GLFSKFAGKGIKNFLIKGVKHIGKEVGMDVIRTGIDVAGCKIKGEC], for which the MIC was 0.349 µM (≈ 1.7 µg/mL) in experiment [1], 0.699 µM (≈ 3.4 µg/mL) in experiment [2], 0.699 µM (≈ 3.4 µg/mL) in experiment [3] and 0.349 µM (≈ 1.7 µg/mL) in experiment [4].

Turning to `CC[C@H](C)[C@H](NC(=O)[C@@H](NC(=O)[C@H](CC(=O)O)NC(=O)[C@H](CC(C)C)NC(=O)[C@H](CC(C)C)NC(=O)CN)[C@@H](C)O)C(=O)N[C@@H](CCCCN)C(=O)N[C@@H](CC(N)=O)C(=O)N[C@@H](CCSC)C(=O)N[C@@H](C)C(=O)N[C@@H](CC(C)C)C(=O)N[C@@H](CC(N)=O)C(=O)N[C@@H](C)C(=O)N[C@@H](C)C(=O)N[C@@H](CCCCN)C(=O)N[C@@H](CO)C(=O)N[C@@H](C)C(=O)NCC(=O)N[C@H](C(=O)N[C@@H](CO)C(=O)N[C@H](C(=O)N[C@@H](CC(C)C)C(=O)N[C@@H](CC(N)=O)C(=O)N[C@@H](CO)C(=O)N[C@@H](CC(C)C)C(=O)N[C@@H](CO)C(=O)N[C@H]1CSSC[C@@H](C(=O)O)NC(=O)[C@H]([C@@H](C)O)NC(=O)[C@H](CCCCN)NC(=O)[C@H](CO)NC(=O)[C@H](CC(=O)O)NC(=O)[C@H](CCCCN)NC1=O)C(C)C)C(C)C` [GLLDTIKNMALNAAKSAGVSVLNSLSCKDSKTC], the MIC in experiment [1] is 3.46 µM (≈ 11.6 µg/mL); in experiment [2] it was 1.73 µM (≈ 5.8 µg/mL); in experiment [3] it was 3.46 µM (≈ 11.6 µg/mL); in experiment [4] it was 1.73 µM (≈ 5.8 µg/mL).

As for `CC[C@H](C)[C@H](NC(=O)[C@H](CC(C)C)NC(=O)[C@H](CCC(N)=O)NC(=O)[C@@H](NC(=O)[C@H](C)NC(=O)CNC(=O)[C@H](CCCCN)NC(=O)[C@@H](NC(=O)[C@H](CC(C)C)NC(=O)[C@@H](NC(=O)[C@H](Cc1ccccc1)NC(=O)[C@@H](NC(=O)CN)C(C)C)[C@@H](C)O)[C@@H](C)CC)[C@@H](C)O)C(=O)NCC(=O)N[C@@H](CCCCN)C(=O)N[C@H](C(=O)N[C@@H](CC(C)C)C(=O)NCC(=O)N[C@@H](CCCCN)C(=O)N[C@@H](CCC(=O)O)C(=O)N[C@@H](CC(C)C)C(=O)NCC(=O)N[C@@H](CCCCN)C(=O)N[C@H](C(=O)NCC(=O)N[C@@H](CC(C)C)C(=O)N[C@@H](CCC(=O)O)C(=O)N[C@@H](CC(C)C)C(=O)N[C@@H](CCSC)C(=O)N[C@@H](C)C(=O)N[C@H]1CSSC[C@@H](C(=O)O)NC(=O)[C@H](CCC(N)=O)NC(=O)[C@H](CC(N)=O)NC(=O)[C@H]([C@@H](C)O)NC(=O)[C@H]([C@@H](C)CC)NC(=O)[C@H](CCCCN)NC1=O)[C@@H](C)O)[C@@H](C)O` [GVFTLIKGATQLIGKTLGKELGKTGLELMACKITNQC], the MIC is 2.78 µM (≈ 10.8 µg/mL) in experiment [1], 2.78 µM (≈ 10.8 µg/mL) in experiment [2], 5.57 µM (≈ 21.6 µg/mL) in experiment [3] and 5.57 µM (≈ 21.6 µg/mL) in experiment [4].

For `CSCC[C@H](NC(=O)[C@H](CCC(=O)O)NC(=O)[C@H](C)NC(=O)[C@H](C)NC(=O)[C@@H](NC(=O)CNC(=O)[C@H](C)NC(=O)[C@@H](NC(=O)[C@H](Cc1ccccc1)NC(=O)[C@H](C)NC(=O)[C@@H](N)CC(C)C)C(C)C)C(C)C)C(=O)N[C@@H](CCSC)C(=O)N[C@@H](CCC(N)=O)C(=O)N[C@@H](Cc1cnc[nH]1)C(=O)N[C@H](C(=O)N[C@@H](Cc1ccc(O)cc1)C(=O)N[C@H]1CSSC[C@@H](C(=O)O)NC(=O)[C@H](CCCCN)NC(=O)[C@H](CCCCN)NC(=O)[C@H](CO)NC(=O)[C@H](C)NC(=O)[C@H](C)NC1=O)C(C)C` [LAFVAGVAAEMMQHVYCAASKKC], the MIC in experiment [1] came out at 5.11 µM (≈ 12.4 µg/mL); in experiment [2], 2.55 µM (≈ 6.2 µg/mL); in experiment [3], 5.11 µM (≈ 12.4 µg/mL); in experiment [4], 5.11 µM (≈ 12.4 µg/mL).

The compound `CC[C@H](C)[C@H](NC(=O)[C@H](CCCN=C(N)N)NC(=O)[C@H](CCCN=C(N)N)NC(=O)[C@@H]1CCCN1C(=O)[C@@H]1CCCN1C(=O)[C@H](CCCN=C(N)N)NC(=O)[C@H](Cc1ccccc1)NC(=O)[C@H](CCCN=C(N)N)NC(=O)[C@@H]1CCCN1C(=O)[C@H](CC(C)C)NC(=O)[C@H](Cc1ccc(O)cc1)NC(=O)[C@@H]1CCCN1C(=O)[C@@H]1CCCN1C(=O)[C@H](CCCCN)NC(=O)[C@H](CC(=O)O)NC(=O)[C@@H](N)C(C)C)C(=O)N[C@@H](Cc1ccc(O)cc1)C(=O)N[C@@H](CC(N)=O)C(=O)N[C@@H](CCCN=C(N)N)C(N)=O` [VDKPPYLPRFRPPRRIYNR] returned an MIC in the experiment on Escherichia coli JW0013 of 1.97 µM (≈ 4.8 µg/mL).

`CC[C@H](C)[C@H](NC(=O)[C@H](CCCN=C(N)N)NC(=O)[C@H](CCCN=C(N)N)NC(=O)[C@@H]1CCCN1C(=O)[C@@H]1CCCN1C(=O)[C@H](CCCN=C(N)N)NC(=O)[C@H](CCCCN)NC(=O)[C@H](CCCN=C(N)N)NC(=O)[C@@H]1CCCN1C(=O)[C@H](CCCN=C(N)N)NC(=O)[C@H](Cc1ccc(O)cc1)NC(=O)[C@@H]1CCCN1C(=O)[C@H](CCCN=C(N)N)NC(=O)[C@H](CCCCN)NC(=O)[C@H](CC(=O)O)NC(=O)[C@@H](N)C(C)C)C(=O)N[C@@H](Cc1ccc(O)cc1)C(=O)N[C@@H](CC(N)=O)C(=O)N[C@@H](CCCN=C(N)N)C(N)=O` [VDKRPYRPRKRPPRRIYNR] yielded an MIC with Escherichia coli JW0013 of 0.951 µM (≈ 2.4 µg/mL).

In the experiment on Escherichia coli JW0013, `CC[C@H](C)[C@H](NC(=O)[C@H](CCCN=C(N)N)NC(=O)[C@H](CCCN=C(N)N)NC(=O)[C@@H]1CCCN1C(=O)[C@@H]1CCCN1C(=O)[C@H](CCCN=C(N)N)NC(=O)[C@@H]1CCCN1C(=O)[C@H](CCCN=C(N)N)NC(=O)[C@@H]1CCCN1C(=O)[C@H](CC(C)C)NC(=O)[C@H](Cc1ccc(O)cc1)NC(=O)[C@@H]1CCCN1C(=O)[C@@H]1CCCN1C(=O)[C@H](CCCCN)NC(=O)[C@H](CC(N)=O)NC(=O)[C@@H](N)C(C)C)C(=O)N[C@@H](Cc1ccc(O)cc1)C(=O)N[C@@H](CC(N)=O)C(=O)N[C@@H](CCCN=C(N)N)C(N)=O` [VNKPPYLPRPRPPRRIYNR] yielded an MIC of 2.01 µM (≈ 4.8 µg/mL).

As for `CC[C@H](C)[C@H](NC(=O)[C@H](CCCN=C(N)N)NC(=O)[C@H](CCCN=C(N)N)NC(=O)[C@@H]1CCCN1C(=O)[C@@H]1CCCN1C(=O)[C@H](CCCN=C(N)N)NC(=O)[C@@H]1CCCN1C(=O)[C@H](CCCN=C(N)N)NC(=O)[C@@H]1CCCN1C(=O)[C@H](CC(C)C)NC(=O)[C@H](Cc1ccc(O)cc1)NC(=O)[C@@H]1CCCN1C(=O)[C@@H]1CCCN1C(=O)[C@H](CCCCN)NC(=O)[C@H](CCCN=C(N)N)NC(=O)[C@@H](N)C(C)C)C(=O)N[C@@H](Cc1ccc(O)cc1)C(=O)N[C@@H](CC(N)=O)C(=O)N[C@@H](CCCN=C(N)N)C(N)=O` [VRKPPYLPRPRPPRRIYNR], the MIC against Escherichia coli JW0013 is 1.36 µM (≈ 3.3 µg/mL); against Escherichia coli UB1005, 0.247 µM (≈ 0.6 µg/mL); in experiment [5] it was 26.3 µM (≈ 64 µg/mL); in experiment [4], 1.64 µM (≈ 4 µg/mL).

By MIC is commonly meant the least concentration at which growth counts as inhibited. Lower therefore signals a more susceptible organism.

These data come from DBAASP.
